Results from ChEMBL document CHEMBL1201862, “PubChem BioAssay data set” (2004).
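Compound exposure: 48 hours, 5 concentrations, 96-well plates. GI50: concentration for 50% inhibition of growth.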 Activity calls are given as the source filed them. Rule as the data show it: active = GI50 up to about 1.1 µM and inactive = higher.

Tests used:
Experiment in all cases: DTP human tumour cell line panel, 48 h
K562 = system: K562
MCF7 = system: MCF7
HL-60 = system: HL-60
RPMI-8226 = system: RPMI-8226
OVCAR-4 = system: OVCAR-4
EKVX = system: EKVX
HCT-15 = system: HCT-15
LOX IMVI = system: LOX IMVI
SR = system: SR
A549 = system: A549
HCC 2998 = system: HCC 2998
HOP-92 = system: HOP-92
SF-268 = system: SF-268
SW-620 = system: SW-620
SK-MEL-5 = system: SK-MEL-5
IGROV-1 = system: IGROV-1
SK-OV-3 = system: SK-OV-3
RXF 393 = system: RXF 393
BT-549 = system: BT-549
NCI-H522 = system: NCI-H522

| SMILES | GI50 (K562) | GI50 (MCF7) | GI50 (HL-60) | GI50 (RPMI-8226) | GI50 (OVCAR-4) | GI50 (EKVX) | GI50 (HCT-15) [µM] | GI50 (LOX IMVI) | GI50 (SR) | GI50 (A549) | GI50 (HCC 2998) | GI50 (HOP-92) | GI50 (SF-268) | GI50 (SW-620) | GI50 (SK-MEL-5) | GI50 (IGROV-1) | GI50 (SK-OV-3) | GI50 (RXF 393) | GI50 (BT-549) | GI50 (NCI-H522) |
| --- | --- | --- | --- | --- | --- | --- | --- | --- | --- | --- | --- | --- | --- | --- | --- | --- | --- | --- | --- | --- |
| Cc1c([N+](=O)[O-])oc2ccc3ccccc3c12 | 18.9 µM (inactive) | 10.3 µM (inactive) | 3.18 µM (inactive) | 9.33 µM (inactive) | 47.5 µM (inactive) | 23 µM (inactive) | 19 | 18.5 µM (inactive) | 2.9 µM (inactive) | 66.1 µM (inactive) | 25.1 µM (inactive) | > 100 µM (inactive) | 35.7 µM (inactive) | 20.2 µM (inactive) | 5.4 µM (inactive) | 12.1 µM (inactive) | 20.8 µM (inactive) | 21.4 µM (inactive) | > 100 µM (inactive) | 3.86 µM (inactive) |
| Cc1oc2nc(N(C)C)n3cnnc3c2c1C | > 100 µM (inactive) | > 100 µM (inactive) | > 100 µM (inactive) | > 100 µM (inactive) | > 100 µM (inactive) | > 100 µM (inactive) | > 100 | – | > 100 µM (inactive) | > 100 µM (inactive) | > 100 µM (inactive) | > 100 µM (inactive) | > 100 µM (inactive) | > 100 µM (inactive) | > 100 µM (inactive) | > 100 µM (inactive) | > 100 µM (inactive) | > 100 µM (inactive) | > 100 µM (inactive) | > 100 µM (inactive) |
| N=NCC(=O)OC(COCc1ccccc1)COCc1ccccc1 | 47 µM (inactive) | 65 µM (inactive) | 56.6 µM (inactive) | > 100 µM (inactive) | 69.7 µM (inactive) | > 100 µM (inactive) | > 100 | 93.5 µM (inactive) | > 100 µM (inactive) | – | > 100 µM (inactive) | 10.2 µM (inactive) | > 100 µM (inactive) | > 100 µM (inactive) | 49.1 µM (inactive) | > 100 µM (inactive) | > 100 µM (inactive) | > 100 µM (inactive) | > 100 µM (inactive) | > 100 µM (inactive) |
| FC(F)(F)c1ccc2nc3n(c2c1)C(c1c(Cl)cccc1Cl)SC3 (stereo not drawn) | – | 16.1 µM (inactive) | 2.47 µM (inactive) | – | 15.8 µM (inactive) | 13.8 µM (inactive) | 14.2 | 27.6 µM (inactive) | 4.24 µM (inactive) | 15 µM (inactive) | 18.5 µM (inactive) | 4.65 µM (inactive) | 21.6 µM (inactive) | 17.8 µM (inactive) | – | 11.5 µM (inactive) | 14 µM (inactive) | 15.2 µM (inactive) | 20.7 µM (inactive) | 11.9 µM (inactive) |
| O=C(/C=C/c1ccsc1)c1ccco1 | 4.71 µM (inactive) | 2.21 µM (inactive) | 7.26 µM (inactive) | 3.52 µM (inactive) | 5.24 µM (inactive) | 16.4 µM (inactive) | 7.24 | 3.1 µM (inactive) | 2.28 µM (inactive) | – | 12.2 µM (inactive) | 14.9 µM (inactive) | 17.1 µM (inactive) | 7.55 µM (inactive) | 15.4 µM (inactive) | 10.4 µM (inactive) | 18.5 µM (inactive) | 13.3 µM (inactive) | 18.5 µM (inactive) | 1.76 µM (inactive) |
| NS(=O)(=O)c1nnc(NC(=O)c2cccc([N+](=O)[O-])c2)s1 | > 100 µM (inactive) | > 100 µM (inactive) | > 100 µM (inactive) | > 100 µM (inactive) | > 100 µM (inactive) | > 100 µM (inactive) | > 100 | > 100 µM (inactive) | > 100 µM (inactive) | > 100 µM (inactive) | > 100 µM (inactive) | 44.9 µM (inactive) | > 100 µM (inactive) | > 100 µM (inactive) | > 100 µM (inactive) | – | > 100 µM (inactive) | > 100 µM (inactive) | > 100 µM (inactive) | > 100 µM (inactive) |
| Cc1ccc2nc(C(C)C)c(=O)[nH]c2c1 | > 100 µM (inactive) | > 100 µM (inactive) | > 100 µM (inactive) | > 100 µM (inactive) | 71.9 µM (inactive) | > 100 µM (inactive) | > 100 | – | > 100 µM (inactive) | 57 µM (inactive) | > 100 µM (inactive) | > 100 µM (inactive) | > 100 µM (inactive) | > 100 µM (inactive) | > 100 µM (inactive) | > 100 µM (inactive) | > 100 µM (inactive) | 93.1 µM (inactive) | > 100 µM (inactive) | 82.8 µM (inactive) |
| O=C(CNc1ccccc1[N+](=O)[O-])Nn1cnc2ccc(S(=O)(=O)Nc3ccccc3[N+](=O)[O-])cc2c1=O | > 100 µM (inactive) | > 100 µM (inactive) | > 100 µM (inactive) | > 100 µM (inactive) | > 100 µM (inactive) | > 100 µM (inactive) | > 100 | > 100 µM (inactive) | > 100 µM (inactive) | > 100 µM (inactive) | > 100 µM (inactive) | > 100 µM (inactive) | > 100 µM (inactive) | > 100 µM (inactive) | – | 78.9 µM (inactive) | > 100 µM (inactive) | – | > 100 µM (inactive) | > 100 µM (inactive) |
| CC1OC(O[C@H]2CC[C@]3(C)[C@H]4CC=C5[C@@H]6[C@@H](C)[C@H](C)CC[C@]6(C(=O)O)CC[C@@]5(C(=O)O)[C@]4(C)CC[C@H]3C2(C)C)C(O)C(O)C1O (stereo partly drawn) | > 75 µM (inactive) | > 75 µM (inactive) | 24.8 µM (inactive) | – | > 75 µM (inactive) | – | > 75 | > 75 µM (inactive) | > 75 µM (inactive) | – | > 75 µM (inactive) | 38.3 µM (inactive) | > 75 µM (inactive) | > 75 µM (inactive) | > 75 µM (inactive) | – | > 75 µM (inactive) | > 75 µM (inactive) | > 75 µM (inactive) | > 75 µM (inactive) |
| CC(C)CCCC(C)[C@H]1CCC2[C@@H]3CCC4Cc5nc6c(nc5C[C@]4(C)C3CC[C@@]21C)CC1CC[C@@H]2C(C[C@@H](O)[C@@]3(C)C2C[C@@H]2OC4(CCC(C)CO4)C(C)[C@@H]23)[C@@]1(C)C6 (stereo partly drawn) | > 100 µM (inactive) | > 100 µM (inactive) | > 100 µM (inactive) | > 100 µM (inactive) | > 100 µM (inactive) | > 100 µM (inactive) | > 100 | – | > 100 µM (inactive) | > 100 µM (inactive) | > 100 µM (inactive) | > 100 µM (inactive) | > 100 µM (inactive) | > 100 µM (inactive) | > 100 µM (inactive) | > 100 µM (inactive) | 94.4 µM (inactive) | > 100 µM (inactive) | > 100 µM (inactive) | > 100 µM (inactive) |
| O=c1[nH]c(Cc2ccccc2)nc2c1sc1nc3ccccc3n12 | – | > 100 µM (inactive) | > 100 µM (inactive) | > 100 µM (inactive) | – | > 100 µM (inactive) | > 100 | > 100 µM (inactive) | > 100 µM (inactive) | > 100 µM (inactive) | > 100 µM (inactive) | > 100 µM (inactive) | > 100 µM (inactive) | > 100 µM (inactive) | > 100 µM (inactive) | > 100 µM (inactive) | > 100 µM (inactive) | > 100 µM (inactive) | > 100 µM (inactive) | > 100 µM (inactive) |
| Cc1nnc2n1-c1ccccc1N(Cc1ccccc1)CC2 | 20.3 µM (inactive) | 37.4 µM (inactive) | 23.6 µM (inactive) | 11.4 µM (inactive) | 71.9 µM (inactive) | 34.2 µM (inactive) | 45.7 | 55.8 µM (inactive) | 30.4 µM (inactive) | 75.7 µM (inactive) | 79.4 µM (inactive) | 9.55 µM (inactive) | 58.9 µM (inactive) | 17.2 µM (inactive) | 38.2 µM (inactive) | 50.6 µM (inactive) | > 100 µM (inactive) | 34.8 µM (inactive) | 22.1 µM (inactive) | – |
| C=CC[C@]12C[C@@H](C(=O)OC)N(C(=O)OC)[C@H]1N(S(=O)(=O)c1ccccc1)c1ccccc12 | 41.1 µM (inactive) | 41.3 µM (inactive) | 29.6 µM (inactive) | 44.3 µM (inactive) | 47.1 µM (inactive) | 31.2 µM (inactive) | 40.1 | – | 38.4 µM (inactive) | 88.5 µM (inactive) | 44.2 µM (inactive) | 42.6 µM (inactive) | 78.2 µM (inactive) | > 100 µM (inactive) | 58.5 µM (inactive) | 43.1 µM (inactive) | 35.6 µM (inactive) | 26 µM (inactive) | > 100 µM (inactive) | 42.3 µM (inactive) |
| N#Cc1c(-c2ccc(Cl)cc2)c2c(n(C3OC(CO)C(O)C(O)C3O)c1=S)CCC2 (stereo not drawn) | 14.7 µM (inactive) | 20.9 µM (inactive) | > 100 µM (inactive) | 45.8 µM (inactive) | 34 µM (inactive) | – | 36.6 | 16.9 µM (inactive) | 47 µM (inactive) | 31.7 µM (inactive) | 19.8 µM (inactive) | 24.3 µM (inactive) | 29 µM (inactive) | 20.4 µM (inactive) | 13.3 µM (inactive) | 34.1 µM (inactive) | 39.5 µM (inactive) | 21.9 µM (inactive) | 34.4 µM (inactive) | – |
| Nc1ncnc2oc(-c3cccs3)nc12 | > 100 µM (inactive) | > 100 µM (inactive) | > 100 µM (inactive) | > 100 µM (inactive) | > 100 µM (inactive) | 37.5 µM (inactive) | > 100 | > 100 µM (inactive) | > 100 µM (inactive) | > 100 µM (inactive) | > 100 µM (inactive) | > 100 µM (inactive) | > 100 µM (inactive) | > 100 µM (inactive) | > 100 µM (inactive) | > 100 µM (inactive) | – | > 100 µM (inactive) | > 100 µM (inactive) | > 100 µM (inactive) |
